According to ChEMBL document CHEMBL1201862, “PubChem BioAssay data set” (2004):
Active and inactive are the calls of the source.

Assays:
[1] = target: ADP-ribosylation factor GTPase-activating protein 1 (Rattus norvegicus, UniProt Q62848); assay: Fluorescence polarization-based biochemical high throughput dose response screening assay to identify inhibitors of ADP-ribosylation factor GTPase activating protein 1 (ARFGAP1).; assay type: functional
[2] = target: T1, Carboxy-terminal domain RNA polymerase II polypeptide A small phosphatase 1 (Homo sapiens, UniProt Q9GZU7); assay: CTDSP1 inhibitors, concentration-response, biochemical, absorbance readout, ultra-high-throughput screen actives (AID 540297); assay type: functional
T1 sequence (Q9GZU7 whole entry): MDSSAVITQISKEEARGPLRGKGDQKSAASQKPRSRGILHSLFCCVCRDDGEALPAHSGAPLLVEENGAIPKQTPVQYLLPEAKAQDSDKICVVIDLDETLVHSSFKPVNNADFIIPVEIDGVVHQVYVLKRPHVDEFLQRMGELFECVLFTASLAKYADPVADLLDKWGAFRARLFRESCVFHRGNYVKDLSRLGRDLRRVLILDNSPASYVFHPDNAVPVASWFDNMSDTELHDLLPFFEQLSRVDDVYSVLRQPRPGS

[3] = target: Photoreceptor-specific nuclear receptor (Homo sapiens, UniProt Q9Y5X4); assay type: functional, cell-based;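 note: CHO-S cells with Gal4-NCOR and VP16-NR2E3 two-hybrid luciferase reporter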
[4] = system: Streptococcus sp. 'group A'; assay: Streptococcus pyogenes SK(-)GAS viability under kanamycin – luminescence, BacTiterGlo, confirmation, counter-screen for streptokinase expression inhibitor project, dose response (AID 1900); assay type: functional, organism-based
Streptococcus = assay: GAS UMAA2166 growth inhibition – luminescence, BacTiterGlo, counter-screen for streptokinase expression inhibitor project, dose response (AID 1915); assay type: functional, organism-based;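 note: potency for reduction of bacterial viability or growth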
Streptokinase A = target: T2, Streptokinase A (Streptococcus pyogenes serotype M1, UniProt P10520); assay: viability-normalized secreted streptokinase activity reduction – plasminogen activation absorbance, OD405, dose response (AID 1914); assay type: functional, Streptococcus pyogenes M1 GAS;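 note: secreted streptokinase activity via plasminogen activation per viability signal from cell pellet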
T2 sequence (P10520 whole entry): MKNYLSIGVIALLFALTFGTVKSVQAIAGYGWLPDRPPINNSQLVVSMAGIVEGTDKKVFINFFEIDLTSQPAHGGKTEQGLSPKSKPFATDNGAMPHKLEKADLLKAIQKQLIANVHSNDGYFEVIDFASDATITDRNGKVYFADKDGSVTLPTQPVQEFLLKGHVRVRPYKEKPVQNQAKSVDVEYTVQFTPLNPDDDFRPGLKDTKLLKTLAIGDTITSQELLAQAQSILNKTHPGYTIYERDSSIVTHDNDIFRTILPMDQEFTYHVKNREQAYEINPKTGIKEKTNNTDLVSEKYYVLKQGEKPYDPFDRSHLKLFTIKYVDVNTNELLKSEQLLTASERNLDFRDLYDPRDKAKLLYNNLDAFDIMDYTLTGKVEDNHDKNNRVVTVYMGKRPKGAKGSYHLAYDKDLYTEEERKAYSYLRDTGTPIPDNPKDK

[5] = SAR analysis of small molecule activators of Apaf-1 using a LZ-Caspase-9/Caspase-3 Fluorescent Selectivity assay - Set 2.; assay type: functional; conditions: read-out: EC50_Mean
[6] = target: T3, Apoptotic protease-activating factor 1 (Homo sapiens, UniProt O14727); assay: SAR analysis of small molecule Activators of Apaf-1 in a Fluorescent assay - set 2.; assay type: functional; conditions: read-out: EC50_Mean
T3 sequence (O14727 whole entry): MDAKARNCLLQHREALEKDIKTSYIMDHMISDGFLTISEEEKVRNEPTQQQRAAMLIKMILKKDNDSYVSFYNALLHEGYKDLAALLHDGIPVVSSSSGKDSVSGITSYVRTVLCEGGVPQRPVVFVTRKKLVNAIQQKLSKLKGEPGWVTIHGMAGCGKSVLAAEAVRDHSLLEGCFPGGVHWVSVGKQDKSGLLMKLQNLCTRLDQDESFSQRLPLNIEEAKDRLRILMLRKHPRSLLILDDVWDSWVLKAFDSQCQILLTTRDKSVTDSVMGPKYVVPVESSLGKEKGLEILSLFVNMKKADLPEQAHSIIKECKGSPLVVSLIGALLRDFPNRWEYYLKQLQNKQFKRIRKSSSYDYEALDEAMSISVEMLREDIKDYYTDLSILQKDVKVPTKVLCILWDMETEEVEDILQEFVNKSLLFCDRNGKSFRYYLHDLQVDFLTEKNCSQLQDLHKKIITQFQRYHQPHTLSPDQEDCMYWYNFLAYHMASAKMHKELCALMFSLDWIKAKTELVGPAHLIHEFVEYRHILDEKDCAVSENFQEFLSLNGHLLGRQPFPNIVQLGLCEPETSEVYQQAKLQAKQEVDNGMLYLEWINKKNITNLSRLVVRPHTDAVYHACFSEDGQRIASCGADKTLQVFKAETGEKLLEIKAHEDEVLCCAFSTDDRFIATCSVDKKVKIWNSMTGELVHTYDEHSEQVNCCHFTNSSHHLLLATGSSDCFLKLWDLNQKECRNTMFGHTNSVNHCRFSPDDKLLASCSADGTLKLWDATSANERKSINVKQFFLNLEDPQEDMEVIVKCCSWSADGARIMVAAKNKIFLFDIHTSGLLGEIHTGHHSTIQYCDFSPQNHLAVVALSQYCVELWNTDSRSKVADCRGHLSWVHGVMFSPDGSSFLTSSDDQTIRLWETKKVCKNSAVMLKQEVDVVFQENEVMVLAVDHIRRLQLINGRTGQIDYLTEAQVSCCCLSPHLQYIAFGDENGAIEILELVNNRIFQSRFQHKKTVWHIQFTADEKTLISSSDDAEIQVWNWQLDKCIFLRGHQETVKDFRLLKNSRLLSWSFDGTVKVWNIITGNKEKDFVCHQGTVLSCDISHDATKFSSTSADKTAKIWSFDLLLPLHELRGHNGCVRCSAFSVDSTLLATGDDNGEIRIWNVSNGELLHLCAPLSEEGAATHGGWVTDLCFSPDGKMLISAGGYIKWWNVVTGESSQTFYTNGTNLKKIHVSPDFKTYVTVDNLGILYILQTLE

[7] = target: Potassium voltage-gated channel subfamily KQT member 2 (Rattus norvegicus, UniProt O88943); assay: blockers of KCNQ2 channel current – cell-based, automated electrophysiology, set II, rat KCNQ2, dose response (AID 588637); assay type: functional
Potassium voltage-gated channel subfamily KQT member 2, sequence (O88943 whole entry): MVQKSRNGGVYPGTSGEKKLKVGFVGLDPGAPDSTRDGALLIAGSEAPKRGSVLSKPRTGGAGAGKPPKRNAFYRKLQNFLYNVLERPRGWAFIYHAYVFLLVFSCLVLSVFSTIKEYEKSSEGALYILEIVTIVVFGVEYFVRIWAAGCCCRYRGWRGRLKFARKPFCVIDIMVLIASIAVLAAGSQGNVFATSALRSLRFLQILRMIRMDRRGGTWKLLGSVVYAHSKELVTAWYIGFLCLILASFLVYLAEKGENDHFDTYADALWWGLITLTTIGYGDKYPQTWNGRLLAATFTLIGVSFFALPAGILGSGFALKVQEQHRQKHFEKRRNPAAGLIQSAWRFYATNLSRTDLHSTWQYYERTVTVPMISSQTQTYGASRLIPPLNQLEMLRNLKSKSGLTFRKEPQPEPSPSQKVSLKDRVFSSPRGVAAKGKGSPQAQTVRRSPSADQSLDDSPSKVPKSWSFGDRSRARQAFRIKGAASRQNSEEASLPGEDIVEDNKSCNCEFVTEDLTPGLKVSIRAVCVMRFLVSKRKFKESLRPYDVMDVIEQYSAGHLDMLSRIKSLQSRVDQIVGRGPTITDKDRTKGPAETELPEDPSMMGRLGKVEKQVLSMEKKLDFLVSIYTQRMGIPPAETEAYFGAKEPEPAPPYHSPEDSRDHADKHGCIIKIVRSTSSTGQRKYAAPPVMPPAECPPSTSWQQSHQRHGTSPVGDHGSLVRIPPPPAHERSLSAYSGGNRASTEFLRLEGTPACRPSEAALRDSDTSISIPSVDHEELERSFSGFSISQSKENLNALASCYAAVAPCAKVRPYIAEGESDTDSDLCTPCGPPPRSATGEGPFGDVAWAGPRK

[8] = target: DNA (cytosine-5)-methyltransferase 1 (Homo sapiens, UniProt P26358); assay: inhibition of DNA methylation by DNMT1 – biochemical, fluorescent molecular beacon, confirmation (AID 602386); assay type: functional
DNA (cytosine-5)-methyltransferase 1, sequence (P26358 whole entry): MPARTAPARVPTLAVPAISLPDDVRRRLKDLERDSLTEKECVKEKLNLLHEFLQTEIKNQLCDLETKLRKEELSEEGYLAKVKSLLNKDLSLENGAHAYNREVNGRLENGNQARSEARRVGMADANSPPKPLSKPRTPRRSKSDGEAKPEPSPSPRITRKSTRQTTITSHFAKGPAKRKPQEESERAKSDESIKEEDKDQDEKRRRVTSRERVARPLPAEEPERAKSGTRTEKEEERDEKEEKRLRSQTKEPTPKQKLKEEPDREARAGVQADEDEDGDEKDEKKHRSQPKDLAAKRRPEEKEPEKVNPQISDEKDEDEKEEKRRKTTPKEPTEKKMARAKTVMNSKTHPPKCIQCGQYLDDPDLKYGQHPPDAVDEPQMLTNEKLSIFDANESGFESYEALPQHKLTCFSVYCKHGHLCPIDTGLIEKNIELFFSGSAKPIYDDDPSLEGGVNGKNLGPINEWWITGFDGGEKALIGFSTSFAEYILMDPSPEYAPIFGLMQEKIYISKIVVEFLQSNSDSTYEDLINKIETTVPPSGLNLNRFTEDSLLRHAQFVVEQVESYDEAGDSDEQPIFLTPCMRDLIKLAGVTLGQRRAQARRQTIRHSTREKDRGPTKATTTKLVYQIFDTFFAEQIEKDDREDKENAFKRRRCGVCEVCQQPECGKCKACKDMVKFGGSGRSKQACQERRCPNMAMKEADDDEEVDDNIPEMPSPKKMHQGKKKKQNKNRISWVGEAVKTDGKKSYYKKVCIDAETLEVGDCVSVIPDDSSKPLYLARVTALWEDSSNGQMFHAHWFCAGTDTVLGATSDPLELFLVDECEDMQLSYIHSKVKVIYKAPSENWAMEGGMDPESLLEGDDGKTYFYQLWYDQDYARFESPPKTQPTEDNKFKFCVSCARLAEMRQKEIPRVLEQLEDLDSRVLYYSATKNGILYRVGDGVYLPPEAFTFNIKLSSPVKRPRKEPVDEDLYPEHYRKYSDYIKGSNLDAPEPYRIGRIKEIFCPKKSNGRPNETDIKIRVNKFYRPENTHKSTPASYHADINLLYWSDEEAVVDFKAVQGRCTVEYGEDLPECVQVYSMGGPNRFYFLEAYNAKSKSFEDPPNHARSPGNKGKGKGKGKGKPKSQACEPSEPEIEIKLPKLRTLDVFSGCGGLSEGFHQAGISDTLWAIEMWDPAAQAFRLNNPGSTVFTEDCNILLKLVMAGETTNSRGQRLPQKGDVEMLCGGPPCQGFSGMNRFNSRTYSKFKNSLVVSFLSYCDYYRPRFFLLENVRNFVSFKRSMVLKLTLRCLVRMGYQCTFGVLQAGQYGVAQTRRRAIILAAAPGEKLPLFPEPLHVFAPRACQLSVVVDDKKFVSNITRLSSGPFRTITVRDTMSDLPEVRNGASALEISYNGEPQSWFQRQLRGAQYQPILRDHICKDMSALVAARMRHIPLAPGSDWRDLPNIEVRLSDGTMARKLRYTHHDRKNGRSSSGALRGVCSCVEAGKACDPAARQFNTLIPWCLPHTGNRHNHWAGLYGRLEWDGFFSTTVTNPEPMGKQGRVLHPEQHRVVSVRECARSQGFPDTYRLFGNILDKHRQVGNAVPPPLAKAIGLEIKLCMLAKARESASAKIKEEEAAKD

[9] = viability loss in HeLa cells – cytotoxicity control for MgcRacGAP inhibitor project, dose response (AID 624300); assay type: functional
[10] = target: T4, Rac GTPase-activating protein 1 (Homo sapiens, UniProt Q9H0H5); assay: blockers of MgcRacGAP-driven Rac1 GTP hydrolysis – biochemical, ADP Hunter fluorescence, primary and confirmatory, confirmation (AID 624330); assay type: functional
T4 sequence (Q9H0H5 whole entry): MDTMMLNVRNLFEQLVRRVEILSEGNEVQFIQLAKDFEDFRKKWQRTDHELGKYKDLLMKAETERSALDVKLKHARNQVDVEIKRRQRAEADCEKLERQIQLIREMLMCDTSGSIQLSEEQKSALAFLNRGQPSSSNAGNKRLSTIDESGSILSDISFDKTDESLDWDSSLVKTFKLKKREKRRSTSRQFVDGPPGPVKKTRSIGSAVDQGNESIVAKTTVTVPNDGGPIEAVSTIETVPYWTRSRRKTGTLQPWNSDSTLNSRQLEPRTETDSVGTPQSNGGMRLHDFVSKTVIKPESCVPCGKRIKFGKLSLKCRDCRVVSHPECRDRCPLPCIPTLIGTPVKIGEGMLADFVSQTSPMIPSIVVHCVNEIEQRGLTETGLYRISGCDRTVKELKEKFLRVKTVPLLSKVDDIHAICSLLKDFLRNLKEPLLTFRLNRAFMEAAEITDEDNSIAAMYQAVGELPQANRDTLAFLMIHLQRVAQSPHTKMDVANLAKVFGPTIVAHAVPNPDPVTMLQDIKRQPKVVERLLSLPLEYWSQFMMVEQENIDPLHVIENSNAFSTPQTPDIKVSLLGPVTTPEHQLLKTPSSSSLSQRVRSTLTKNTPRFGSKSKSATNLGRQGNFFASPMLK

[11] = target: Mitochondrial peptide methionine sulfoxide reductase (Bos taurus, UniProt P54149); assay type: functional;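 note: absorbance read-out, biochemical high-throughput dose-response screen for MsrA inhibitors, confirmatory; recombinant bovine MsrA coupled to E. coli TrxB with NADPH and selenocystamine; potency is for inhibitors of MsrA activity on DMSO substrate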
Mitochondrial peptide methionine sulfoxide reductase, sequence (P54149 whole entry): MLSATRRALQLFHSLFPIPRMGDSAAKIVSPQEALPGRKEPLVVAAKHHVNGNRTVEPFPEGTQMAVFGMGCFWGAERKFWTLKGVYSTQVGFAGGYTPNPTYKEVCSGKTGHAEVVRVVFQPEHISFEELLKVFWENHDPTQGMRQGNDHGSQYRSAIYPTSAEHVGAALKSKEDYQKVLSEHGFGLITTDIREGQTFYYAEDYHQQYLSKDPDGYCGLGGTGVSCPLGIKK

[12] = non-specific 3'UTR reporter inhibition in Clone20-Shn3RL – cell-based, Renilla luciferase, cherry-picked, counter-screen for Shn3 inhibitor project, dose response (AID 624133); assay type: functional
[13] = reduction of Shn3 3'UTR-driven luciferase in osteoblasts – cell-based, Clone20 osteoblasts, firefly luciferase, cherry-picked, dose response (AID 624132); assay type: functional;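 note: firefly luciferase luminescence from reporter carrying the Shn3 3'UTR in osteoblasts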
[14] = loss of viability in HepG2 cells – cell-based, CellTiter-Glo, cherry-picked, cytotoxicity control for Shn3 inhibitor project, dose response (AID 624134); assay type: functional
Protein Wnt-3a = Protein Wnt-3a (Mus musculus, UniProt P27467); assay: antagonism of Wnt3a pathway luciferase reporter – Wnt-LIGHT cells, luminescence, selectivity assay for Gli-SUFU antagonist project, dose response (AID 651570); assay type: functional; conditions: read-out: IC50_Mean;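 note: Wnt-LIGHT reporter cells stimulated with conditioned medium from Wnt3a-producing cells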
Protein Wnt-3a, sequence (P27467 whole entry): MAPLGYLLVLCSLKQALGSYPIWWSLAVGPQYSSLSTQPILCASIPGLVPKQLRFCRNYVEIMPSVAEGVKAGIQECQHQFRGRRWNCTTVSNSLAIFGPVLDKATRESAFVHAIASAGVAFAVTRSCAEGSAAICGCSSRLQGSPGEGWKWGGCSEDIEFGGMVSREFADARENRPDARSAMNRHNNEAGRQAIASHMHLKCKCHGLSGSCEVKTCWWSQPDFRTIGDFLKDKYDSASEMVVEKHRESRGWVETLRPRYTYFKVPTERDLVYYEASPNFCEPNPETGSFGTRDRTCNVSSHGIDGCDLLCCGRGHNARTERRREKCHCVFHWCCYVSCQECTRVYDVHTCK

Cytochrome P450 2D6 = Cytochrome P450 2D6 (Homo sapiens, UniProt P10635);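 note: CYP2D6 member of a cytochrome P450 panel assay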
Cytochrome P450 2D6, sequence (P10635 whole entry, the tested form may be a part): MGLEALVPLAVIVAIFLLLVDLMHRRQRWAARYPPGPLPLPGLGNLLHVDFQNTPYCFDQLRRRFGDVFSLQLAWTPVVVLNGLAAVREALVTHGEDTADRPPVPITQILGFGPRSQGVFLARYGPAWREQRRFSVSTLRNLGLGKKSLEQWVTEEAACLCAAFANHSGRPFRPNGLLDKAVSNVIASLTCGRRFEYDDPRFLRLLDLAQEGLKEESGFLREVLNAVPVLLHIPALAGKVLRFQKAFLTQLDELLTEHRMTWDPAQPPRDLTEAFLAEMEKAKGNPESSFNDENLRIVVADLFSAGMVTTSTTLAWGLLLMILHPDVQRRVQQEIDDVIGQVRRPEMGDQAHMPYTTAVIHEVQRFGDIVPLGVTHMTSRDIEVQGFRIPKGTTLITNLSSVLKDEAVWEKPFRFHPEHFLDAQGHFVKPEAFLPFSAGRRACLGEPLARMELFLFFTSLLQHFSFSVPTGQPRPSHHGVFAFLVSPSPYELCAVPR

[15] = target: Hepatocyte nuclear factor 4-alpha (Homo sapiens, UniProt P41235); assay type: functional, cell-based;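 note: biochemical luminescence-based dose-response counterscreen measuring inhibition of HNF4 dimerization, run alongside a screen for blockers of ABHD5–perilipin-5 interaction; split luciferase complementation of HNF4 fusion proteins in cell lysate measuring dimerization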
Hepatocyte nuclear factor 4-alpha, sequence (P41235 whole entry, the tested form may be a part): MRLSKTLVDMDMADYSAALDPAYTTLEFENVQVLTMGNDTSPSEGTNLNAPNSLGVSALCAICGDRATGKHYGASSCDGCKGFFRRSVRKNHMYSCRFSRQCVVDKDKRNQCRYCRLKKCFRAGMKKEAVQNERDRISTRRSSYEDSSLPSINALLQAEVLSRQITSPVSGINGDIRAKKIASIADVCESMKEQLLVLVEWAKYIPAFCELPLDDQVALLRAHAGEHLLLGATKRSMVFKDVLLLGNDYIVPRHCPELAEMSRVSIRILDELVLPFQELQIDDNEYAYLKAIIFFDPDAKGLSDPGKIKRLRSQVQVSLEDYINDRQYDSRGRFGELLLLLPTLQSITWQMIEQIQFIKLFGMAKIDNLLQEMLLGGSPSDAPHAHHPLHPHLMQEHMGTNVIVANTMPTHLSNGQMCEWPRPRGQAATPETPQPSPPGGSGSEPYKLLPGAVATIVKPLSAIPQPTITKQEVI

[16] = target: DNA dC->dU-editing enzyme APOBEC-3G (Homo sapiens, UniProt Q9HC16); assay: SAR analysis of small molecule inhibitors of APOBEC3G DNA Deaminase via a fluorescence-based single-stranded DNA deaminase assay - Set 2.; assay type: functional; conditions: read-out: IC50_Mean
DNA dC->dU-editing enzyme APOBEC-3G, sequence (Q9HC16 whole entry): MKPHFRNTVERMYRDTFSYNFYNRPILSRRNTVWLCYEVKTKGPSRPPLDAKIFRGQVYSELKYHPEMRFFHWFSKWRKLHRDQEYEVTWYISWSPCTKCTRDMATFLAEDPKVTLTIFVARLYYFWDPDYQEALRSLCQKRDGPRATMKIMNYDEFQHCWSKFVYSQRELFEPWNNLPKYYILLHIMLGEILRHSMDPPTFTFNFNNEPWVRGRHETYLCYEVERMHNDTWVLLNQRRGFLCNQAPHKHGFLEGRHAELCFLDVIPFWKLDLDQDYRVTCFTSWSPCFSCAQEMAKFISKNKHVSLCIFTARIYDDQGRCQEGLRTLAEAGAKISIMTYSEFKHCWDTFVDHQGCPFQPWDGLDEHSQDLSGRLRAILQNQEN

[17] = target: DNA dC->dU-editing enzyme APOBEC-3A (Homo sapiens, UniProt P31941); assay: SAR analysis of small molecule inhibitors of APOBEC3A DNA Deaminase via a fluorescence-based single-stranded DNA deaminase assay - Set 2.; assay type: functional; conditions: read-out: IC50_Mean
DNA dC->dU-editing enzyme APOBEC-3A, sequence (P31941 whole entry): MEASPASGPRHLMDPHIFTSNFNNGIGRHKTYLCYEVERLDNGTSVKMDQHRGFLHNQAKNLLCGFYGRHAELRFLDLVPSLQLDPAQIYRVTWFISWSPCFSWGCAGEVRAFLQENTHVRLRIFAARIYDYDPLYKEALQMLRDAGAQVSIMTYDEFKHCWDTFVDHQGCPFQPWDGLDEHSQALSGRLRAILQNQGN

ADP-ribosylation factor GTPase-activating protein 1, sequence (Q62848 whole entry, the tested form may be a part): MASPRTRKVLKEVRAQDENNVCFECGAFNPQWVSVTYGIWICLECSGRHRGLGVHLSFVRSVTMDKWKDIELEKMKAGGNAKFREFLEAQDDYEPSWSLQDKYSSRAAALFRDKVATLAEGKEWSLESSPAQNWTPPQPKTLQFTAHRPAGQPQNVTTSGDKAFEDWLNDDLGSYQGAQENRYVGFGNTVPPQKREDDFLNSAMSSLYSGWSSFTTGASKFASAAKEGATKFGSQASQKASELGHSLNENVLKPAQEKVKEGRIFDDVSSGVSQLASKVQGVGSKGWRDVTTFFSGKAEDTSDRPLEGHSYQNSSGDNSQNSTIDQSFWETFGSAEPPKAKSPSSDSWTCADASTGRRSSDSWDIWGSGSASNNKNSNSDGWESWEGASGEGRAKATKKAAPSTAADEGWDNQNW

## O=C(N/N=C/c1sc(=O)n(Cc2ccc(Br)cc2)c1Cl)c1ccco1
[1]
  IC50: 34.3 µM (inactive)
[2]
  IC50: 3.55 µM (active)

## CCN(c1ccccc1)S(=O)(=O)c1ccc(C(=O)Nc2nnc(CSC)o2)cc1
[3]
  IC50: 8.64 µM (active)
[4]
  EC50: 3.5 µM (active)
Streptococcus
  EC50: 15 µM (active)
Streptokinase A
  EC50: > 150 µM (not active)

## CC(CN1CCCCC1)C(=O)O (stereo unspecified)
[5]
  EC50: > 100 µM (inactive)
[6]
  EC50: > 100 µM (inactive)

## CC(C)(C)N1CC(c2nc3ccccc3n2Cc2ccc(Cl)cc2)CC1=O (stereo unspecified)
[7]
  IC50: 1.23 µM (active)

## c1ccc2c(c1)c1c(c3ccccc32)CN2CCCC2C1 (stereo unspecified)
[8]
  IC50: > 99 µM (inactive)
[9]
  CC50: 100 µM (active)
[10]
  IC50: 111 µM (active)

## Cc1ccc(C(=O)N/N=C/C=C/c2ccccc2)o1
[11]
  IC50: 134 µM (inactive)

## O=c1c2ccccc2nc2n1C(CSCc1cccc(C(F)(F)F)c1)CS2 (stereo unspecified)
[12]
  AC50: 0.863 µM (active)
[13]
  AC50: 1.68 µM (active)
[14]
  AC50: 3.22 µM (active)
Protein Wnt-3a
  IC50: 2.01 µM (active)
Cytochrome P450 2D6
  AC50: 7.08 µM (inconclusive)

## Cc1cccc(C)c1NC(=O)C(c1cccc2ccccc12)n1c(=O)c(-c2ccco2)nc2ccccc21 (stereo unspecified)
[15]
  IC50: 2.56 µM (active)

## Cc1ccc(-c2csc3nnc(SCC(N)=O)n23)cc1
[16]
  IC50: > 99 µM (inactive)
[17]
  IC50: > 99 µM (inactive)
